Literature values in US10596151B2, “Methods and pharmaceutical compositions for reducing arterial stiffness with a combination of a therapeutic agent blocking the angiotensin receptor and a therapeutic agent inhibiting the NEP enzyme” (Novartis AG, priority 2015, dated 2020).

Tested on: patients with hypertension
Conditions: after 12 weeks of therapy; cited from earlier work

## O=C(N[C@H]1CCS[C@H]2CCC[C@@H](C(=O)O)N2C1=O)[C@@H](S)Cc1ccccc1 [omapatrilat]
  aortic characteristic impedance compared with enalapril: greater improvements in aortic characteristic impedance compared with enalapril
